Measurements reported in patent US10414732B2, “Polymorphic compounds and uses thereof” (priority 2017, dated 2019).
≈ marks a conversion by molar mass, not a printed value. Like-named read-outs stand apart in the source and are kept apart here. Each block holds one compound with its values, some of them ahead of it.

Experiments:
Assay type in all cases: physicochemical
[1] = Aqueous solubility determination via HPLC calibration curve
Protocol: The solubility determination was made as follows. Each salt suspension was made by adding 50-100 mg of material into a minimum amount of water (0.1-0.2 mL to start). Based on solubility, additional material was added to obtain a salt suspension. The suspension was then filtered through a 0.25 μm filter and the filtrate was further diluted with water and the salt solution was analysed by HPLC. The concentration of the salt solution injected was calculated with the linear equation y=mx+c derived from the calibration curves, with Y referring to the HPLC response obtained for the salt solution injected.

[2] = Characterization of the resulting solid form (hygroscopicity)
[3] = Competitive slurries (cross-seeding) of free base Forms A and B, solids analysed by XRPD; settings: for XRPD form after competitive slurry: Forms A and B equal amounts, 72 h
Protocol: This set of experiments was performed using various solvents and solvent combinations. Cross-seeding experiments were performed over a range of temperatures to help define the relationship between Forms A and B.
Procedure: Twenty-one cross-seeding experiments were performed by adding equal amounts of Forms A and B (weight/weight, total of 25 mg). The mixture was slurried in the given solvent/system (ca. 5 vol. 125 μl) at room temperature, then matured at a specific temperature (5° C., 25° C. or 50° C.) for 72 h. The solids were filtered, air dried and analysed by XRPD. After two days, samples 3 and 15 were completely dry and additional portions of their corresponding solvents were added, (250 μl was added to sample 3 and 248.6 μl was added to sample 15). Solids obtained were characterised by XRPD.

[4] = water, thermodynamic from solid, aqueous (water), filtered suspension, HPLC, read-out: Solubility
[5] = aqueous (water), filtered suspension, HPLC

Structure (SMILES): CC(C)(O)c1nc2ccc(Cl)cc2cc1N.CS(=O)(=O)O [Compound 1]
- solubility [1, 4]: > 1500 mg/mL
- Aqueous solubility compared with the other compounds ([1]; water, comparison in words): highest solubility
- Hygroscopicity ([2]; Form B): slightly hygroscopic

Structure (SMILES): CC(C)(O)c1nc2ccc(Cl)cc2cc1N.O=S(=O)(O)c1ccccc1 [Compound 2]
- Hygroscopicity ([2]; Form A): slightly hygroscopic

Structure (SMILES): CC(C)(O)c1nc2ccc(Cl)cc2cc1N.O=S(=O)(O)O [Compound 3]
- solubility ([1]; thermodynamic from solid, aqueous (water), filtered suspension, HPLC, read-out: Solubility): 421 mg/mL
- Hygroscopicity ([2]; Form A): slightly hygroscopic

Structure (SMILES): CC(C)(O)c1nc2ccc(Cl)cc2cc1N.Cc1ccc(S(=O)(=O)O)cc1 [Compound 4]
- solubility [1, 4]: 11 mg/mL

Structure (SMILES): CC(C)(O)c1nc2ccc(Cl)cc2cc1N.O=C(O)C(=O)O [Compound 6]
- solubility ([1]; water, thermodynamic from solid, Solubility): 15.6 mg/mL

Further lines, results first:

- solubility [1, 5]: 73 mg/mL (≈ 308 mM)
- Hygroscopicity ([2]; Form A): slightly hygroscopic
Structure (SMILES): CC(C)(O)c1nc2ccc(Cl)cc2cc1N [Compound 5]

- solubility [1, 4]: > 500 mg/mL
- Hygroscopicity ([2]; Form A): slightly hygroscopic
Structure (SMILES): CC(C)(O)c1nc2ccc(Cl)cc2cc1N.O=P(O)(O)O [Compound 7]

- solubility [1, 5]: 35 mg/mL (≈ 148 mM)
Structure (SMILES): CC(C)(O)c1nc2ccc(Cl)cc2cc1N [Compound 8]

- solubility [1, 5]: <0.1 mg/mL
- Transition temperature between Form A and Form B [3]: below 50 °C
- XRPD form after competitive slurry ([3]; Acetone:H2O (10%), 5° C.): Form B
- XRPD form after competitive slurry ([3]; Acetone:H2O (10%), 25° C.): Form B
- XRPD form after competitive slurry ([3]; Acetone:H2O (10%), 50° C.): Forms A & B
- XRPD form after competitive slurry ([3]; Cyclohexane, 5° C.): Forms A & B
- XRPD form after competitive slurry ([3]; Cyclohexane, 25° C.): Form B
- XRPD form after competitive slurry ([3]; Cyclohexane, 50° C.): Form B
- XRPD form after competitive slurry ([3]; EtOAc:Heptane, 5° C.): Form B
- XRPD form after competitive slurry ([3]; EtOAc:Heptane, 25° C.): Form B
- XRPD form after competitive slurry ([3]; EtOAc:Heptane, 50° C.): Form B
- XRPD form after competitive slurry ([3]; Heptane, 5° C.): Form B
- XRPD form after competitive slurry ([3]; Heptane, 25° C.): Form B
- XRPD form after competitive slurry ([3]; Heptane, 50° C., additional solvent added): Form B
- XRPD form after competitive slurry ([3]; Toluene, 5° C.): Form B
- XRPD form after competitive slurry ([3]; Toluene, 25° C.): Form B
- XRPD form after competitive slurry ([3]; Toluene, 50° C.): Form A
- XRPD form after competitive slurry ([3]; Toluene:Cyclohexane, 5° C.): Form B
- XRPD form after competitive slurry ([3]; Toluene:Cyclohexane, 25° C.): Form B
- XRPD form after competitive slurry ([3]; Toluene:Cyclohexane, 50° C.): Form B
- XRPD form after competitive slurry ([3]; Toluene:Heptane, 5° C.): Form B
- XRPD form after competitive slurry ([3]; Toluene:Heptane, 25° C.): Form B
- XRPD form after competitive slurry ([3]; Toluene:Heptane, 50° C., additional solvent added): Form B
- Most stable form in competitive slurries ([3]; two anhydrous forms (Form A & Form B), under the investigated conditions): Form B
- Hygroscopicity ([2]; Form A): non-hygroscopic
- Hygroscopicity ([2]; Form B): slightly hygroscopic
Structure (SMILES): CC(C)(O)c1nc2ccc(Cl)cc2cc1N [Compound A]
